Data taken from US20250059171A1 (Hoffmann-La Roche Inc., priority 2021, published 2025).
Read-outs that look alike come from different tables or passages of the source.

Columns and labels:
MERS-CoV 3CLpro = MERS-CoV 3CLpro (Middle East respiratory syndrome-related coronavirus, UniProt K9N7C7); experiment: biochemical
SARS-CoV 3CLpro = SARS-CoV 3CLpro (Severe acute respiratory syndrome coronavirus, UniProt P0C6X7); experiment: biochemical
HCoV-229E 3CLpro = HCoV-229E 3CLpro (Human coronavirus 229E, UniProt P0C6X1); experiment: HCoV-229E 3CLpro inhibition assay (FRET); type: biochemical
SARS-CoV-2 3CLpro = SARS-CoV-2 3CLpro (Severe acute respiratory syndrome coronavirus 2, UniProt P0DTD1); experiment: biochemical

MERS-CoV 3CLpro, sequence (K9N7C7 3248-3553): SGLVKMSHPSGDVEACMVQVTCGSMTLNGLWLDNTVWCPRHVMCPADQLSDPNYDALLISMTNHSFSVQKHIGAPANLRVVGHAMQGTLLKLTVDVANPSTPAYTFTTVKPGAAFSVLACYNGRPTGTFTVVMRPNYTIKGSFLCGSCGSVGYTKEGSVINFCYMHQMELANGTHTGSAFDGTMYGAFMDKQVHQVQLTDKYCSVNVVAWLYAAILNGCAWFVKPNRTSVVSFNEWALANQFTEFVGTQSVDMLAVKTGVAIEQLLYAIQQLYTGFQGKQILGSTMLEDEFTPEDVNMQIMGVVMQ
HCoV-229E 3CLpro, sequence (P0C6X1 2966-3267): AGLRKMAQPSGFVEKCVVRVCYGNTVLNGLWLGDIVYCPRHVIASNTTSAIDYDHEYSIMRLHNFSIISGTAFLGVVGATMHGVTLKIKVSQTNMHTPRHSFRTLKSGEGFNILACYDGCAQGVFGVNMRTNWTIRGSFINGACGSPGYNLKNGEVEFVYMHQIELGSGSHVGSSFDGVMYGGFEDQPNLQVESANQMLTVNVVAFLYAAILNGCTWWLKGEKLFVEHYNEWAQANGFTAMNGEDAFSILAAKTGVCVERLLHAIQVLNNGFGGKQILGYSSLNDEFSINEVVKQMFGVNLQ

Row | Structure (SMILES) | IC50 (MERS-CoV 3CLpro) [nM] | IC50 (SARS-CoV 3CLpro) [nM] | IC50 (HCoV-229E 3CLpro) [nM] | IC50 (SARS-CoV-2 3CLpro) [nM] | IC50 (SARS-CoV-2 3CLpro; read-out: IC50 in SARS-CoV-2 3CLpro assay) [nM]
1 | CCC(CC)[C@H](NC(=O)C1(F)CC1)C(=O)N1C[C@H]2[C@@H]([C@H]1C(=O)NN(C[C@@H]1CCNC1=O)C(=O)[C@@H](F)Cl)C2(C)C [Example 133, N-[(1S)-1-[(1R,2S,5S)-2-[[[(2S)-2-chloro-2-fluoro-acetyl]-[[(3S)-2-oxopyrrolidin-3-yl]methyl]amino]carbamoyl]-6,6-dimethyl-3-azabicyclo[3.1.0]hexane-3-carbonyl]-2-ethyl-butyl]-1-fluoro-cyclopropanecarboxamide] | 106 | 32 | 40 | 20 | 
2 | CCC(CC)[C@H](NC(=O)C1CC(F)(F)C1)C(=O)N1C[C@@H]2CCC[C@@H]2[C@H]1C(=O)NN(C[C@@H]1CCNC1=O)C(=O)[C@H](F)Cl [Example 134, N-[(1S)-1-[(3S,3aS,6aR)-3-[[[(2R)-2-chloro-2-fluoro-acetyl]-[[(3S)-2-oxopyrrolidin-3-yl]methyl]amino]carbamoyl]-3,3a,4,5,6,6a-hexahydro-1H-cyclopenta[c]pyrrole-2-carbonyl]-2-ethyl-butyl]-3,3-difluoro-cyclobutanecarboxamide] | 97 | 14 | 36 | 10 | 
3 | CCC(CC)[C@H](NC(=O)C1CC1)C(=O)N1C[C@@H]2CCC[C@@H]2[C@H]1C(=O)NN(C[C@@H]1CCNC1=O)C(=O)[C@H](F)Cl [Example 135, N-[(1S)-1-[(3S,3aS,6aR)-3-[[[(2R)-2-chloro-2-fluoro-acetyl]-[[(3S)-2-oxopyrrolidin-3-yl]methyl]amino]carbamoyl]-3,3a,4,5,6,6a-hexahydro-1H-cyclopenta[c]pyrrole-2-carbonyl]-2-ethyl-butyl]cyclopropanecarboxamide] | 131 | 15 | 39 | 11 | 
4 | CCC(CC)[C@H](NC(=O)C(F)F)C(=O)N1C[C@@H]2CCC[C@@H]2[C@H]1C(=O)NN(C[C@@H]1CCNC1=O)C(=O)[C@H](F)Cl [Example 136, N-[(1S)-1-[(3S,3aS,6aR)-3-[[[(2R)-2-chloro-2-fluoro-acetyl]-[[(3S)-2-oxopyrrolidin-3-yl]methyl]amino]carbamoyl]-3,3a,4,5,6,6a-hexahydro-1H-cyclopenta[c]pyrrole-2-carbonyl]-2-ethyl-butyl]-2,2-difluoro-acetamide] | 74 | 15 | 55 | 16 | 
5 | CCC(CC)[C@H](NC(=O)C1(F)CC1)C(=O)N1CC(C)(C)C[C@H]1C(=O)NN(C[C@@H]1CCNC1=O)C(=O)[C@H](F)Cl [Example 138, N-[(1S)-1-[(2S)-2-[[[(2R)-2-chloro-2-fluoro-acetyl]-[[(3S)-2-oxopyrrolidin-3-yl]methyl]amino]carbamoyl]-4,4-dimethyl-pyrrolidine-1-carbonyl]-2-ethyl-butyl]-1-fluoro-cyclopropanecarboxamide] | 283 | 25 | 54 | 16 | 
6 | CCC(CC)[C@H](NC(=O)C(F)F)C(=O)N1CC(C)(C)C[C@H]1C(=O)NN(C[C@@H]1CCNC1=O)C(=O)[C@H](F)Cl [Example 139, N-[(1S)-1-[(2S)-2-[[[(2R)-2-chloro-2-fluoro-acetyl]-[[(3S)-2-oxopyrrolidin-3-yl]methyl]amino]carbamoyl]-4,4-dimethyl-pyrrolidine-1-carbonyl]-2-ethyl-butyl]-2,2-difluoro-acetamide] | 139 | 18 | 35 | 14 | 
7 | CCC(C)(C)[C@H](NC(=O)[C@H](C)F)C(=O)N1C[C@H]2[C@@H]([C@H]1C(=O)NN(C[C@@H]1CCNC1=O)C(=O)[C@H](F)Cl)C2(C)C [Example 140, (2S)—N-[(1S)-1-[(1R,2S,5S)-2-[[[(2R)-2-chloro-2-fluoro-acetyl]-[[(3S)-2-oxopyrrolidin-3-yl]methyl]amino]carbamoyl]-6,6-dimethyl-3-azabicyclo[3.1.0]hexane-3-carbonyl]-2,2-dimethyl-butyl]-2-fluoro-propanamide] | 94 | 25 | 31 | 11 | 
8 | CCC(C)(C)[C@H](NC(=O)[C@@H](C)F)C(=O)N1C[C@H]2[C@@H]([C@H]1C(=O)NN(C[C@@H]1CCNC1=O)C(=O)[C@H](F)Cl)C2(C)C [Example 141, (2R)—N-[(1S)-1-[(1R,2S,5S)-2-[[[(2R)-2-chloro-2-fluoro-acetyl]-[[(3S)-2-oxopyrrolidin-3-yl]methyl]amino]carbamoyl]-6,6-dimethyl-3-azabicyclo[3.1.0]hexane-3-carbonyl]-2,2-dimethyl-butyl]-2-fluoro-propanamide] | 117 | 15 | 35 | 10 | 
9 | CCC(C)(C)[C@H](NC(=O)C1CC1)C(=O)N1C[C@H]2[C@@H]([C@H]1C(=O)NN(C[C@@H]1CCNC1=O)C(=O)[C@H](F)Cl)C2(C)C [Example 142, N-[(1S)-1-[(1R,2S,5S)-2-[[[(2R)-2-chloro-2-fluoro-acetyl]-[[(3S)-2-oxopyrrolidin-3-yl]methyl]amino]carbamoyl]-6,6-dimethyl-3-azabicyclo[3.1.0]hexane-3-carbonyl]-2,2-dimethyl-butyl]cyclopropanecarboxamide] | 83 | 13 | 31 | 10 | 
10 | CCC(C)(C)[C@H](NC(=O)C1(F)CC1)C(=O)N1C[C@H]2[C@@H]([C@H]1C(=O)NN(C[C@@H]1CCNC1=O)C(=O)[C@H](F)Cl)C2(C)C [Example 143, N-[(1S)-1-[(1R,2S,5S)-2-[[[(2R)-2-chloro-2-fluoro-acetyl]-[[(3S)-2-oxopyrrolidin-3-yl]methyl]amino]carbamoyl]-6,6-dimethyl-3-azabicyclo[3.1.0]hexane-3-carbonyl]-2,2-dimethyl-butyl]-1-fluoro-cyclopropanecarboxamide] | 86 | 13 | 28 | 8 | 
11 | CCC(C)(C)[C@H](NC(=O)C(F)F)C(=O)N1C[C@H]2[C@@H]([C@H]1C(=O)NN(C[C@@H]1CCNC1=O)C(=O)[C@H](F)Cl)C2(C)C [Example 144, N-[(1S)-1-[(1R,2S,5S)-2-[[[(2R)-2-chloro-2-fluoro-acetyl]-[[(3S)-2-oxopyrrolidin-3-yl]methyl]amino]carbamoyl]-6,6-dimethyl-3-azabicyclo[3.1.0]hexane-3-carbonyl]-2,2-dimethyl-butyl]-2,2-difluoro-acetamide] | 112 | 15 | 33 | 11 | 
12 | CCC(C)(C)[C@H](NC(=O)C1(F)CC1)C(=O)N1C[C@H]2[C@@H]([C@H]1C(=O)NN(C[C@@H]1CCNC1=O)C(=O)[C@@H](F)Cl)C2(C)C [Example 145, N-[(1S)-1-[(1R,2S,5S)-2-[[[(2S)-2-chloro-2-fluoro-acetyl]-[[(3S)-2-oxopyrrolidin-3-yl]methyl]amino]carbamoyl]-6,6-dimethyl-3-azabicyclo[3.1.0]hexane-3-carbonyl]-2,2-dimethyl-butyl]-1-fluoro-cyclopropanecarboxamide] | 152 | 27 | 77 | 18 | 
13 | CCC(C)(C)[C@H](NC(=O)C1CC1)C(=O)N1C[C@H]2[C@@H]([C@H]1C(=O)NN(C[C@@H]1CCNC1=O)C(=O)[C@@H](F)Cl)C2(C)C [Example 147, N-[(1S)-1-[(1R,2S,5S)-2-[[[(2S)-2-chloro-2-fluoro-acetyl]-[[(3S)-2-oxopyrrolidin-3-yl]methyl]amino]carbamoyl]-6,6-dimethyl-3-azabicyclo[3.1.0]hexane-3-carbonyl]-2,2-dimethyl-butyl]cyclopropanecarboxamide] | 89 | 16 | 40 | 12 | 
14 | CCC(C)(C)[C@H](NC(=O)C(F)F)C(=O)N1C[C@H]2[C@@H]([C@H]1C(=O)NN(C[C@@H]1CCNC1=O)C(=O)[C@@H](F)Cl)C2(C)C [Example 148, N-[(1S)-1-[(1R,2S,5S)-2-[[[(2S)-2-chloro-2-fluoro-acetyl]-[[(3S)-2-oxopyrrolidin-3-yl]methyl]amino]carbamoyl]-6,6-dimethyl-3-azabicyclo[3.1.0]hexane-3-carbonyl]-2,2-dimethyl-butyl]-2,2-difluoro-acetamide] | 130 | 20 | 30 | 13 | 
15 | CCC(C)(C)[C@H](NC(=O)C1(F)CC1)C(=O)N1C[C@@H]2CCC[C@@H]2[C@H]1C(=O)NN(C[C@@H]1CCNC1=O)C(=O)[C@H](F)Cl [Example 149, N-[(1S)-1-[(3S,3aS,6aR)-3-[[[(2R)-2-chloro-2-fluoro-acetyl]-[[(3S)-2-oxopyrrolidin-3-yl]methyl]amino]carbamoyl]-3,3a,4,5,6,6a-hexahydro-1H-cyclopenta[c]pyrrole-2-carbonyl]-2,2-dimethyl-butyl]-1-fluoro-cyclopropanecarboxamide] | 139 | 15 | 45 |  | 6
16 | CCC(C)(C)[C@H](NC(=O)[C@@H]1CC1(F)F)C(=O)N1C[C@@H]2CCC[C@@H]2[C@H]1C(=O)NN(C[C@@H]1CCNC1=O)C(=O)[C@H](F)Cl [Example 150, (1S)—N-[(1S)-1-[(3S,3aS,6aR)-3-[[[(2R)-2-chloro-2-fluoro-acetyl]-[[(3S)-2-oxopyrrolidin-3-yl]methyl]amino]carbamoyl]-3,3a,4,5,6,6a-hexahydro-1H-cyclopenta[c]pyrrole-2-carbonyl]-2,2-dimethyl-butyl]-2,2-difluoro-cyclopropanecarboxamide] | 63 | 16 | 33 | 11 | 
